Laboratory results taken from PubChem BioAssay AID1259411 (Chemical Carcinogenesis Research Information System (CCRIS), 2018).
Activity calls are given as the source filed them. How the calls were made is not given here.

System: rodent carcinogenicity bioassays, tumor incidence
Assay: CCRIS carcinogenicity studies
Details: Dose: 0, Dose: 0
In short: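 Archive of carcinogenicity, mutagenicity, tumor promotion and tumor inhibition results drawn from journals, NCI reports and other sources, expert-reviewed; covers 1985-2011 and is no longer updated.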

[1] = Species: MOUSE, Strain/Sex: B6C3F1/FEMALE, Route: ORAL, 25000, 50000 PPM IN DIET, 25000, 50000 PPM IN DIET
[2] = Species: MOUSE, Strain/Sex: B6C3F1/MALE, Route: ORAL, 25000, 50000 PPM IN DIET, 25000, 50000 PPM IN DIET

## O=CCC=O
Species: MOUSE, Strain/Sex: B6C3F1/FEMALE, Route: GAVAGE, 60, 120 MG/KG IN DISTILLED WATER 5D/WK FOR 102 WK (STUDY DURATION: 105 WK), 60, 120 MG/KG IN DISTILLED WATER 5D/WK FOR 102 WK (STUDY DURATION: 105 WK)
  carcinogen call: inactive; negative
Species: MOUSE, Strain/Sex: B6C3F1/FEMALE, Route: INTRAPERITONEAL, 1500 NMOL TOTAL DOSE, 1/3 AND 2/3 OF THE TOTAL DOSE ADMINISTERED AT 8 AND 15 DAYS OF AGE RESPECTIVELY, ANIMALS TERMIN
  carcinogen call: inactive; negative
Species: MOUSE, Strain/Sex: B6C3F1/FEMALE, Route: INTRAPERITONEAL, 3000 NMOL TOTAL DOSE, 1/3 AND 2/3 OF THE TOTAL DOSE ADMINISTERED AT 8 AND 15 DAYS OF AGE RESPECTIVELY, ANIMALS TERMIN
  carcinogen call: inactive; negative
Species: MOUSE, Strain/Sex: B6C3F1/MALE, Route: GAVAGE, 60, 120 MG/KG IN DISTILLED WATER 5D/WK FOR 102 WK (STUDY DURATION: 104 WK), 60, 120 MG/KG IN DISTILLED WATER 5D/WK FOR 102 WK (STUDY DURATION: 104 WK)
  carcinogen call: inactive; negative
Species: MOUSE, Strain/Sex: B6C3F1/MALE, Route: INTRAPERITONEAL, 1500 NMOL TOTAL DOSE, 1/3 AND 2/3 OF THE TOTAL DOSE ADMINISTERED AT 8 AND 15 DAYS OF AGE RESPECTIVELY, ANIMALS TERMIN
  carcinogen call: inactive; negative
Species: MOUSE, Strain/Sex: B6C3F1/MALE, Route: INTRAPERITONEAL, 3000 NMOL TOTAL DOSE, 1/3 AND 2/3 OF THE TOTAL DOSE ADMINISTERED AT 8 AND 15 DAYS OF AGE RESPECTIVELY, ANIMALS TERMIN
  carcinogen call: inactive; negative
Species: RAT, Strain/Sex: F344/FEMALE, Route: GAVAGE, 50, 100 MG/KG IN DISTILLED WATER 5D/WK FOR 102 WK (STUDY DURATION: 105 WK), 50, 100 MG/KG IN DISTILLED WATER 5D/WK FOR 102 WK (STUDY DURATION: 105 WK), Tumor Site: Type of Lesion: THYROID GLAND: FOLLICULAR CELL ADENOMA, THYROID GLAND: FOLLICULAR CELL ADENOMA OR CARCINOMA
  carcinogen call: active; positive
Species: RAT, Strain/Sex: F344/MALE, Route: GAVAGE, 50, 100 MG/KG IN DISTILLED WATER 5D/WK FOR 102 WK (STUDY DURATION: 104 WK), 50, 100 MG/KG IN DISTILLED WATER 5D/WK FOR 102 WK (STUDY DURATION: 104 WK), Tumor Site: Type of Lesion: THYROID GLAND: FOLLICULAR CELL ADENOMA OR CARCINOMA, PANCREATIC ISLETS: ISLET CELL ADENOMA, PANCREATIC ISLETS: ISLET CEL, Tumor Site: Type of Lesion: THYROID GLAND: FOLLICULAR CELL ADENOMA OR CARCINOMA, PANCREATIC ISLETS: ISLET CELL ADENOMA, PANCREATIC ISLETS: ISLET CEL
  carcinogen call: active; positive

## O=[N+]([O-])c1cc(O)c2ccc3cccc4ccc1c2c34
Species: RAT, Strain/Sex: STRAIN-CD/FEMALE, Route: SUBCUTANEOUS, 63 UMOL (TOTAL DOSE) ADMINISTERED OVER 8 WK BEGINNING WITHIN 24 HR OF BIRTH (STUDY DURATION: 86 WK)
  carcinogen call: inactive; negative

## Cc1cccc2ccccc12
Species: MOUSE, Strain/Sex: B6C3F1/FEMALE, Route: ORAL, 0.075, 0.15% IN DIET FOR 81 WK (STUDY DURATION: 81 WK), 0.075, 0.15% IN DIET FOR 81 WK (STUDY DURATION: 81 WK)
  carcinogen call: inactive; negative
Species: MOUSE, Strain/Sex: B6C3F1/MALE, Route: ORAL, 0.075, 0.15% IN DIET FOR 81 WK (STUDY DURATION: 81 WK), 0.075, 0.15% IN DIET FOR 81 WK (STUDY DURATION: 81 WK), Tumor Site: Type of Lesion: LUNG: ADENOMA
  carcinogen call: active; positive

## CC(/C=C/C=C(\C)C(=O)O[C@@H]1O[C@H](CO[C@@H]2O[C@H](CO)[C@@H](O)[C@H](O)[C@H]2O)[C@@H](O)[C@H](O)[C@H]1O)=C\C=C\C=C(C)\C=C\C=C(/C)C(=O)O[C@@H]1O[C@H](CO[C@@H]2O[C@H](CO)[C@@H](O)[C@H](O)[C@H]2O)[C@@H](O)[C@H](O)[C@H]1O
Species: MOUSE, Strain/Sex: C57BL/FEMALE, Route: ORAL, 0.2, 0.8% IN DRINKING WATER FOR 95 WK (STUDY DURATION: 95 WK), 0.2, 0.8% IN DRINKING WATER FOR 95 WK (STUDY DURATION: 95 WK)
  carcinogen call: inactive; negative
Species: MOUSE, Strain/Sex: C57BL/MALE, Route: ORAL, 0.2, 0.8% IN DRINKING WATER FOR 95 WK (STUDY DURATION: 95 WK), 0.2, 0.8% IN DRINKING WATER FOR 95 WK (STUDY DURATION: 95 WK)
  carcinogen call: inactive; negative

## CCCCNC(=O)NS(=O)(=O)c1ccc(C)cc1
[1]
  carcinogen call: inactive; negative
[2]
  carcinogen call: inactive; negative
Species: RAT, Strain/Sex: F344/FEMALE, Route: ORAL, 12000, 24000 PPM IN DIET, 12000, 24000 PPM IN DIET
  carcinogen call: inactive; negative
Species: RAT, Strain/Sex: F344/MALE, Route: ORAL, 12000, 24000 PPM IN DIET, 12000, 24000 PPM IN DIET
  carcinogen call: inactive; negative

## O=C(O)c1cc2ccccc2c(N=Nc2ccccc2)c1O
Species: MOUSE, Strain/Sex: ICR/FEMALE, Route: DERMAL, 1 MG IN 0.1 ML DISTILLED WATER 2/WK FOR A MEAN TOTAL DOSE OF 122.2 MG (STUDY DURATION: 18 MO)
  carcinogen call: inactive; negative
Species: MOUSE, Strain/Sex: ICR/MALE, Route: DERMAL, 1 MG IN 0.1 ML DISTILLED WATER 2/WK FOR A MEAN TOTAL DOSE OF 122.2 MG (STUDY DURATION: 18 MO)
  carcinogen call: inactive; negative

## Nc1ccccc1C(=O)O
[1]
  carcinogen call: inactive; negative
[2]
  carcinogen call: inactive; negative
Species: RAT, Strain/Sex: F344/FEMALE, Route: ORAL, 15000, 30000 PPM IN DIET, 15000, 30000 PPM IN DIET
  carcinogen call: inactive; negative
Species: RAT, Strain/Sex: F344/MALE, Route: ORAL, 15000, 30000 PPM IN DIET, 15000, 30000 PPM IN DIET
  carcinogen call: inactive; negative

## CN(C)c1ccc(N=NS(=O)(=O)O)cc1
Species: MOUSE, Strain/Sex: B6C3F1/FEMALE, Route: ORAL, 0.05, 0.10% OF DIET, TWA, 0.05, 0.10% OF DIET, TWA
  carcinogen call: inactive; negative
Species: MOUSE, Strain/Sex: B6C3F1/MALE, Route: ORAL, 0.10, 0.19% OF DIET, TWA, 0.10, 0.19% OF DIET, TWA
  carcinogen call: inactive; negative
Species: RAT, Strain/Sex: F344/FEMALE, Route: ORAL, 0.05, 0.10% OF DIET, TWA, 0.05, 0.10% OF DIET, TWA
  carcinogen call: inactive; negative
Species: RAT, Strain/Sex: F344/MALE, Route: ORAL, 0.05, 0.10% OF DIET, TWA, 0.05, 0.10% OF DIET, TWA
  carcinogen call: inactive; negative

## Nc1nc(=S)c2ncn([C@H]3C[C@H](O)[C@@H](CO)O3)c2[nH]1
Species: RAT, Strain/Sex: SPRAGUE-DAWLEY/FEMALE, Route: INTRAPERITONEAL, 3.5, 7 MG/KG FOR 52 WK (STUDY DURATION: 78 WK), 3.5, 7 MG/KG FOR 52 WK (STUDY DURATION: 78 WK), Tumor Site: Type of Lesion: EAR (CANAL): CARCINOMA, NOS OR SQUAMOUS CELL CARCINOMA
  carcinogen call: active; positive
Species: RAT, Strain/Sex: SPRAGUE-DAWLEY/MALE, Route: INTRAPERITONEAL, 3.5, 7 MG/KG FOR 52 WK (STUDY DURATION: 78 WK), 3.5, 7 MG/KG FOR 52 WK (STUDY DURATION: 78 WK), Tumor Site: Type of Lesion: EAR (CANAL): CARCINOMA OR SQUAMOUS CELL CARCINOMA
  carcinogen call: equivocal
